# Test results reported in patent US12441768B2, “Compositions and methods for treating endometriosis” (EndoMet Biosciences, Inc., priority 2018, dated 2025).
# Where a SMILES comes first, the peptide text is derived from it. [ ]: non-standard residue; d: D form. The star is where a group is joined. ξ: configuration not given here. NMeW = CN[C@@H](Cc1c[nH]c2ccccc12)C(=O)O; Stearoyl = CCCCCCCCCCCCCCCCCC(=O)*; ξαMeV = CC(C)C(C)(N)C(=O)O; ξαMeS = CC(N)(CO)C(=O)O; GABA = NCCCC(=O)O; βAla = NCCC(=O)O
# Experiments:
# [1] = molecular target: T1, β-catenin (Homo sapiens, UniProt P35222); assay: KD50 measurement using competitive fluorescence polarization (FP) with labelled TCF4; type: binding; details: fluorescence polarization, β-catenin; for Kd: read-out: β-Cat FP KD
# T1 sequence (P35222 1-781): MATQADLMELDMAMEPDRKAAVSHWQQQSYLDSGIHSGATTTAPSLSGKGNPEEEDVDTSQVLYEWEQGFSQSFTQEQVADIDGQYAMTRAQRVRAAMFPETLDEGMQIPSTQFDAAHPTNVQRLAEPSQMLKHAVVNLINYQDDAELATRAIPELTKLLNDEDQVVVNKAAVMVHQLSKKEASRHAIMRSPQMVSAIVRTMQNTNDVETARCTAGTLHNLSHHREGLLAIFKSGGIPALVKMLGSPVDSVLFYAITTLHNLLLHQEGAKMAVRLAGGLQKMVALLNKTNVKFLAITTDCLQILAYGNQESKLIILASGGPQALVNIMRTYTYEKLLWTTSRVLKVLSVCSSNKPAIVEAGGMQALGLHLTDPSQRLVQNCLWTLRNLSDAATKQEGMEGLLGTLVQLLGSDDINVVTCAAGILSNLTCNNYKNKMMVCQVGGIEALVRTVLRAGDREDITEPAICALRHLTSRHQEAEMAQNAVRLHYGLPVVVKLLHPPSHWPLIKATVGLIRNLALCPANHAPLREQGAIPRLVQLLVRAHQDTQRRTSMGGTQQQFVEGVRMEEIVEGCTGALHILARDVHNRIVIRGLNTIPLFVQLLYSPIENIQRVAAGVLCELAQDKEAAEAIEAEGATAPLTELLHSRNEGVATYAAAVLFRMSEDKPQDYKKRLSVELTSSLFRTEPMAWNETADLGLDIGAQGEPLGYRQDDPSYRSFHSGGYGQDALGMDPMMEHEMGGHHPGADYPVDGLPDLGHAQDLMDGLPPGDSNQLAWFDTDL
# Summary of the method: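 Polarization readout (470 nm excitation, 520 nm emission) tracks loss of labelled TCF4 binding to β-catenin as test compound competes. Conditions were 5 nM tracer, 100 nM β-catenin, room temperature, compound serially diluted from 10 nM to 30 uM; run in triplicate experiments.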
# [2] = tested on: mouse EMS lesion cells; type: cell-based
# Procedure: (§1) Peptides inhibiting β-catenin cause decreased cell viability in a colon cancer cell line (SW480) and endometriosis lesions excised from a disease animal model. Peptides from libraries described herein are characterized in their effect on cell viability, as measured using a luminescent cell viability assay (Cell Titer-Glo®, Promega, Madison, WI) and expressed as IC50 in Table 5. Peptide inhibitors were tested for their ability to inhibit cellular proliferation across 2 different β-catenin expressing pathogenic cell lines: a colon cancer cell line (SW480) and/or mouse EMS lesion cells derived from mouse model of disease. Both cells lines are naturally known to express high levels of β-catenin. Cell lines were incubated with varying concentrations of peptide concentration and assessed for viability after day 5 and 7 days. The CellTiter-Glo® Luminescent Cell Viability Assay (Promega) is used to detect viable cells. IC50 values are graphed and calculated using Prism software (GraphPad) based on the cell viability readouts. IC50 is used to assess inhibition of cell proliferation by peptide concentration and is used to calculate the inhibitory effect of each peptide across each line. The results are used to assess the therapeutic potency of the peptides. In the SW480 cell line, peptide inhibitors from Family 1 (SEQ ID NO:264) and Family 2 (SEQ ID NO:396) were added daily to the cell growth medium. After 7 days, cell viability was assessed with the Cell-Titer Glo kit (Promega, Madison, WI). […] IC50 was calculated for peptides based on the concentration at which 50% viability was observed (Table 5).
# [3] = tested on: colon cancer cell line (SW480); type: cell-based
# Procedure: as §1
# [4] = molecular target: Wnt-responsive promoter (TCF/LEF); assay: Wnt-dependent luciferase reporter assay; type: cell-based, murine
# Summary of the method: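 EC50 (uM) derived from inhibition of luminescence in Wnt3a-stimulated murine 3T3 cells expressing luciferase under a TCF/LEF promoter, with peptides added across a concentration range and vehicle as control.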
# [5] = % Viability non-Wnt responsive cells
Compound,Kd [1] [µM],IC50 [2] [µM],IC50 [3] [µM],β-Cat FP Hill slope [1],EC50 [4] [µM],viability [5] [%],"Cell growth / viability ([2]; mouse EMS lesion cells, peptide added daily 0.024-25 uM, 5 days)"
"CCCCCCCCCCCCCCCCCC(=O)N[C@@H](Cc1c[nH]c2ccccc12)C(=O)N(C)[C@@H](Cc1c[nH]c2ccccc12)C(=O)N[C@@H](CCC(=O)O)C(=O)NC(C)(CO)C(=O)N[C@H](C(=O)N[C@@H](CC(C)C)C(=O)N[C@@H](CC(=O)O)C(=O)N[C@@H](CCC(=O)O)C(=O)N[C@@H](Cc1c[nH]cn1)C(=O)NC(C)(C(=O)N[C@@H](CCC(N)=O)C(=O)N[C@@H](CCCNC(=N)N)C(=O)N[C@H](C(=O)N[C@@H](Cc1c[nH]c2ccccc12)C(=O)O)C(C)C)C(C)C)[C@@H](C)CC (single isomer, unassigned) [393/500]",> 30,5,1.7,–,–,–,–
"CCCC[C@@H]1NC(=O)[C@@H](NC(C)=O)CCCCNC(=O)C[C@@H](C(=O)O)NC(=O)[C@H](Cc2c[nH]c3ccccc23)NC(=O)[C@H](C)NC(=O)[C@H](CC)NC(=O)[C@H]([C@@H](C)CC)NC(=O)[C@H](CC(C)C)NC(=O)[C@H](CC2CCCCC2)NC(=O)[C@H](Cc2c[nH]c3ccccc23)NC1=O [compound 215] (HELM PEPTIDE1{[ac].K.[Nle].W.[Cha].L.I.[Abu].A.W.D}$PEPTIDE1,PEPTIDE1,2:R3-11:R3$$$V2.0)",–,> 30,–,1.69,> 30,106,–
"CC[C@@H]1NC(=O)[C@H]([C@@H](C)CC)NC(=O)[C@H](CC(C)C)NC(=O)[C@H](C2CCCCC2)NC(=O)[C@H](Cc2c[nH]c3ccccc23)NC(=O)[C@@H](NC(C)=O)CCCCNC(=O)C[C@@H](C(=O)O)NC(=O)[C@H](Cc2c[nH]c3ccccc23)NC(=O)[C@H](C)NC1=O [compound 262] (HELM PEPTIDE1{[ac].K.W.[O=C([C@@H](N[*:1])C1CCCCC1)[*:2]].L.I.[Abu].A.W.D}$PEPTIDE1,PEPTIDE1,2:R3-10:R3$$$V2.0)",0.4 to 1,26.3,5,3,–,–,–
CCCCCCCCCCCCCCCCCC(=O)NCCC(=O)N[C@@H](Cc1c[nH]c2ccccc12)C(=O)N(C)[C@@H](Cc1c[nH]c2ccccc12)C(=O)N[C@@H](CCC(=O)O)C(=O)NC(C)(CO)C(=O)N[C@H](C(=O)N[C@@H](CC(C)C)C(=O)N[C@@H](CC(=O)O)C(=O)N[C@@H](CCC(=O)O)C(=O)N[C@@H](Cc1c[nH]cn1)C(=O)NC(C)(C(=O)N[C@@H](CCC(N)=O)C(=O)N[C@@H](CCCNC(=N)N)C(=O)N[C@H](C(=O)N[C@@H](Cc1c[nH]c2ccccc12)C(=O)NCC(=O)O)C(C)C)C(C)C)[C@@H](C)CC (stereo partly shown) [compound 391] ({Stearoyl-βAla}-W[NMeW]E[ξαMeS]ILDEH[ξαMeV]QRVWG-OH),–,–,4.8,–,< 7.5,–,–
CCCCCCCCCCCCCCCCCC(=O)NCCCC(=O)N[C@@H](Cc1c[nH]c2ccccc12)C(=O)N(C)[C@@H](Cc1c[nH]c2ccccc12)C(=O)N[C@@H](CCC(=O)O)C(=O)NC(C)(CO)C(=O)N[C@H](C(=O)N[C@@H](CC(C)C)C(=O)N[C@@H](CC(=O)O)C(=O)N[C@@H](CCC(=O)O)C(=O)N[C@@H](Cc1c[nH]cn1)C(=O)NC(C)(C(=O)N[C@@H](CCC(N)=O)C(=O)N[C@@H](CCCNC(=N)N)C(=O)N[C@H](C(=O)N[C@@H](Cc1c[nH]c2ccccc12)C(=O)O)C(C)C)C(C)C)[C@@H](C)CC (stereo partly shown) [compound 395] ({Stearoyl-GABA}-W[NMeW]E[ξαMeS]ILDEH[ξαMeV]QRVW-OH),–,–,6.8,–,7.5 to 15,–,–
"Lauroyl-NH-W-NMeA-QK*ILDE*H-Chg-E*DVWK*-NH2 (WAQKILDEHGEDVWK; HELM PEPTIDE1{[CCCCCCCCCCCC(=O)[*:2]].W.[meA].Q.K.I.L.D.E.H.[O=C([C@@H](N[*:1])C1CCCCC1)[*:2]].E.D.V.W.K.[am]}$PEPTIDE1,PEPTIDE1,12:R3-16:R3|PEPTIDE1,PEPTIDE1,5:R3-9:R3$$$V2.0; SMILES CCCCCCCCCCCC(=O)N[C@@H](Cc1c[nH]c2ccccc12)C(=O)N(C)[C@@H](C)C(=O)N[C@@H](CCC(N)=O)C(=O)N[C@H]1CCCCNC(=O)CC[C@@H](C(=O)N[C@@H](Cc2c[nH]cn2)C(=O)N[C@H](C(=O)N[C@H]2CCC(=O)NCCCC[C@@H](C(N)=O)NC(=O)[C@H](Cc3c[nH]c4ccccc34)NC(=O)[C@H](C(C)C)NC(=O)[C@H](CC(=O)O)NC2=O)C2CCCCC2)NC(=O)[C@H](CC(=O)O)NC(=O)[C@H](CC(C)C)NC(=O)[C@H]([C@@H](C)CC)NC1=O; listed as Homo sapiens) [SEQ ID NO: 465]",–,–,–,–,–,–,inhibited cell growth

# More lines, main results first:
Kd [1] [µM],IC50 [2] [µM],IC50 [3] [µM],β-Cat FP Hill slope [1],EC50 [4] [µM],Compound,viability [5] [%],"Cell growth / viability ([2]; mouse EMS lesion cells, peptide added daily 0.024-25 uM, 5 days)"
< 0.4,–,18.5,0.8,–,CCCCCCCCCCCCCC(=O)NCC(=O)N[C@@H](Cc1c[nH]c2ccccc12)C(=O)N(C)[C@@H](Cc1c[nH]c2ccccc12)C(=O)N[C@@H](CCC(=O)O)C(=O)N[C@@H](CO)C(=O)N[C@H](C(=O)N[C@@H](CC(C)C)C(=O)N[C@@H](CC(=O)O)C(=O)N[C@@H](CCC(=O)O)C(=O)N[C@@H](Cc1c[nH]cn1)C(=O)N[C@H](C(=O)N[C@@H](CCC(N)=O)C(=O)N[C@@H](CCCNC(=N)N)C(=O)N[C@H](C(=O)N[C@@H](Cc1c[nH]c2ccccc12)C(=O)NCC(=O)O)C(C)C)C(C)C)[C@@H](C)CC [compound 1] (HELM PEPTIDE1{[CCCCCCCCCCCCCC(=O)[*:2]].G.W.[meW].E.S.I.L.D.E.H.V.Q.R.V.W.G}$$$$V2.0),–,–
–,–,4.7,–,7.5 to 15,CCCCCCCCCCCCCCCCCC(=O)N[C@@H](Cc1c[nH]c2ccccc12)C(=O)N(C)[C@@H](Cc1c[nH]c2ccccc12)C(=O)N[C@@H](CCC(=O)O)C(=O)NC(C)(CO)C(=O)N[C@H](C(=O)N[C@@H](CC(C)C)C(=O)N[C@@H](CC(=O)O)C(=O)N[C@@H](CCC(=O)O)C(=O)N[C@@H](Cc1c[nH]cn1)C(=O)NC(C)(C(=O)N[C@@H](CCC(N)=O)C(=O)N[C@@H](CCCNC(=N)N)C(=O)N[C@H](C(=O)N[C@@H](Cc1c[nH]c2ccccc12)C(=O)NCC(=O)O)C(C)C)C(C)C)[C@@H](C)CC (stereo partly shown) [compound 390] (Stearoyl-W[NMeW]E[ξαMeS]ILDEH[ξαMeV]QRVWG-OH),–,–
< 0.4,–,26.8,0.7,15 to 22.5,"CC[C@H](C)[C@@H]1NC(=O)[C@@H](NC(=O)[C@H](CCC(N)=O)NC(=O)[C@H](C)N(C)C(=O)[C@H](Cc2c[nH]c3ccccc23)NC(=O)CCC(=O)O)CCCCNC(=O)CC[C@@H](C(=O)N[C@@H](Cc2c[nH]cn2)C(=O)N[C@H](C(=O)N[C@@H](CCC(N)=O)C(=O)N[C@@H](CCCNC(=N)N)C(=O)N[C@H](C(=O)N[C@@H](Cc2c[nH]c3ccccc23)C(=O)NCC(N)=O)C(C)C)C2CCCCC2)NC(=O)[C@H](CC(=O)O)NC(=O)[C@H](CC(C)C)NC1=O [compound 405] (HELM PEPTIDE1{[O=C(O)CCC(=O)[*:2]].W.[meA].Q.K.I.L.D.E.H.[O=C([C@@H](N[*:1])C1CCCCC1)[*:2]].Q.R.V.W.G.[am]}$PEPTIDE1,PEPTIDE1,5:R3-9:R3$$$V2.0)",–,–
< 0.4,0.8,14.9,–,–,"CCCCCCCCCCCC(=O)N[C@@H](Cc1c[nH]c2ccccc12)C(=O)N(C)[C@@H](C)C(=O)N[C@@H](CCC(N)=O)C(=O)N[C@H]1CCCCNC(=O)C[C@@H](C(=O)N[C@@H](Cc2c[nH]cn2)C(=O)N[C@H](C(=O)N[C@@H](CCC(N)=O)C(=O)N[C@@H](CCCNC(=N)N)C(=O)N[C@H](C(=O)N[C@@H](Cc2c[nH]c3ccccc23)C(=O)NCC(N)=O)C(C)C)C2CCCCC2)NC(=O)[C@H](CC(=O)O)NC(=O)[C@H](CC(C)C)NC(=O)[C@H]([C@@H](C)CC)NC1=O [compound 432] (HELM PEPTIDE1{[CCCCCCCCCCCC(=O)[*:2]].W.[meA].Q.K.I.L.D.D.H.[O=C([C@@H](N[*:1])C1CCCCC1)[*:2]].Q.R.V.W.G.[am]}$PEPTIDE1,PEPTIDE1,5:R3-9:R3$$$V2.0)",–,–
